For this assay, the target named is T1, MerTK (Homo sapiens, UniProt Q12866).
T1 construct: Seed HUVECs (10K cells/well) in EBM-2 complete media; host or cells: HUVEC (primary human umbilical vein endothelial cells)
T1 sequence (Q12866 21-999): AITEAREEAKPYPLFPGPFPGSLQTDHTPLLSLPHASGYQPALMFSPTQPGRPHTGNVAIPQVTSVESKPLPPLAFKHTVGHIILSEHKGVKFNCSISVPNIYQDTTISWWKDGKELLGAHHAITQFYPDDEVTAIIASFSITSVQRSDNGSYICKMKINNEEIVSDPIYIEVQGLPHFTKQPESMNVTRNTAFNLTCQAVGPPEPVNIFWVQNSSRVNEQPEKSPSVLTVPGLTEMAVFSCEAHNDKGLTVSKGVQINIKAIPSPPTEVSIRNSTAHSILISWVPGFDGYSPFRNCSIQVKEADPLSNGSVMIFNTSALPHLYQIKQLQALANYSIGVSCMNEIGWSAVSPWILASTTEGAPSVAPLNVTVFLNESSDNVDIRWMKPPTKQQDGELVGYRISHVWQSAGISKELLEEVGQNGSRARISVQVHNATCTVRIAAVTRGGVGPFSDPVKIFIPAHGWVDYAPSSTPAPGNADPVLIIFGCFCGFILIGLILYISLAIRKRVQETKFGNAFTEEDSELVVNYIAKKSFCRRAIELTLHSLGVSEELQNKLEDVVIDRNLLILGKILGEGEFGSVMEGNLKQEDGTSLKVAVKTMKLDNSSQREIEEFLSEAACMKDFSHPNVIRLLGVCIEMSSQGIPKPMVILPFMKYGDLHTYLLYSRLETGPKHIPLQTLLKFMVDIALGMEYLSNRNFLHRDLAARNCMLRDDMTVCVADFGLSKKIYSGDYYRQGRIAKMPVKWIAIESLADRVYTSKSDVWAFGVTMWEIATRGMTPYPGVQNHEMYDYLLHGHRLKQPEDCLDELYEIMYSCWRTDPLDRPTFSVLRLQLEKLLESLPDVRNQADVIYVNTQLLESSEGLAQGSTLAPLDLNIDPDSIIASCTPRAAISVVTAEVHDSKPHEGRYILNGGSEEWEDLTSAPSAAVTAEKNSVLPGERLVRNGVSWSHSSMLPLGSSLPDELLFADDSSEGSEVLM
The assay is described as follows: PAKT HTRF-HUVEC assay (pAkt Ser473 HTRF after anti-human MerTK-XL stimulation). The conditions noted are these: HUVEC cells, 1 hour compound, stimulated with anti-human MerTK-XL 1 ug/mL for 10 minutes, read-out: inhibition of MerTK. The class given is cell-based. The procedure:
Example 4: PAKT HTRF-HUVEC Assay Phospho Akt (Ser473) Assay kit-10,000 tests (Cisbio US, 64[…]) HUVEC cells (Lonza, CC-2519) Anti-human MerTK antibody (Clone 125518) (R&D Systems, MAB8912) Method Seed HUVECs (10K cells/well) in EBM-2 complete media (EBM-2 basal medium plus EGM-2 BulletKit supplements) overnight at 37° C., 5% CO2 in Costar 96-well white clear-bottom plates. Remove culture media and starve cells for 3-4 hours in 50 μL/well EBM-2 basal medium. Perform serial dilution of compounds in DMSO from 2.5 mM in 4-fold dilutions, and then dilute 1:125 in EBM-2 basal media. Mix 50 μL/well 2x compounds with 50 μL/well HUVECs in duplicate in Costar 96-well white clear-bottom plates. Incubate plates for 1 hour at 37° C., 5% CO2. Cross-link anti-human MerTK antibody to Biotin-SP-conjugated anti-mouse IgG antibody (1:1) to give final concentrations of 5 ug/mL of anti-human MerTK-XL. Stimulate HUVECs with 25 μL/well 5x anti-human MerTK-XL to give final concentrations of 1 ug/mL for 10 minutes at 37° C., 5% CO2. Completely remove media and lyse HUVECs with 40 uL/WELL per well of Cisbio HTRF 1× lysis buffer. Performed pAkt(Ser473) HTRF assay in ProxiPlate-384 Plus, white 384-shallow well microplate according to the vendor protocol and read plates with a SpectralMax Paradigm plate reader. Enter the HTRF values into Athena (Rigel) for curve fitting, EC50 calculation, and database storage.

Turning to `O=c1c2cc(N3CCNCC3)ccc2c2cnc(NCC3CC3)nc2n1[C@H]1CC[C@H](O)CC1` [Compound 108, trans-3-((Cyclopropylmethyl)amino)-5-(4-hydroxycyclohexyl)-8-(piperazin-1-yl)pyrimido[4,5-c]isoquinolin-6(5H)-one], the EC50 worked out at 170 nM.

For `C[C@]1(O)CC[C@H](n2c(=O)c3cc(CN4CCOCC4)ccc3c3cnc(NCC4CC4)nc32)CC1` [Compound 46, trans-3-((Cyclopropylmethyl)amino)-5-(4-hydroxy-4-methylcyclohexyl)-8-(morpholinomethyl)pyrimido [4,5-c]isoquinolin-6(5H)-one], the EC50 was 116 nM.

Take `O=c1c2cc(N3CCN(CC(F)F)CC3)ccc2c2cnc(NCC3CC3)nc2n1[C@H]1CC[C@H](O)CC1` [Compound 105, trans-3-((Cyclopropylmethyl)amino)-8-(4-(2,2-difluoroethyl)piperazin-1-yl)-5-(4-hydroxycyclohexyl)pyrimido [4,5-c]isoquinolin-6(5H)-one]: the EC50 turned out to be 354 nM.

Take `CCC(F)(F)CNc1ncc2c3ccc(CN4CCN(C(C)(C)C)CC4)cc3c(=O)n([C@H]3CC[C@H](O)CC3)c2n1` [Compound 198, trans-8-((4-(tert-Butyl)piperazin-1-yl)methyl)-3-((2,2-difluorobutyl)amino)-5-(4-hydroxycyclohexyl)pyrimido[4,5-c]isoquinolin-6(5H)-one]: the EC50 came out at 13.2 nM.

`O=c1c2cc(CN3CCN(c4ccncc4)CC3)ccc2c2cnc(NCC3CC3)nc2n1[C@H]1CC[C@H](O)CC1` [Compound 124, trans-3-((Cyclopropylmethyl)amino)-5-(4-hydroxycyclohexyl)-8-((4-(pyridin-4-yl)piperazin-1-yl)methyl)pyrimido[4,5-c]isoquinolin-6(5H)-one]: the EC50 worked out at 36.2 nM.

Regarding `CN1CCN(Cc2ccc3c(c2)c(=O)n([C@H]2CCC[C@H](O)CC2)c2nc(NCC4CC4)ncc32)CC1` [Compound 230, 3-((cyclopropylmethyl)amino)-5-((1S,4S)-4-hydroxycycloheptyl)-8-((4-methylpiperazin-1-yl)methyl)pyrimido[4,5-c]isoquinolin-6(5H)-one], the EC50 amounted to 140 nM.

Turning to `O=c1c2cc(CN3CCN(CC(F)(F)F)CC3)ccc2c2cnc(NCC3CC3)nc2n1[C@H]1CC[C@H](O)CC1` [Compound 40, trans-3-((Cyclopropylmethyl)amino)-5-(4-hydroxycyclohexyl)-8-((4-(2,2,2-trifluoroethyl)piperazin-1-yl)methyl)pyrimido[4,5-c]isoquinolin-6(5H)-one], the EC50 stood at 50.7 nM.

In the case of `CN1CCN(Cc2ccc3c(c2)c(=O)n([C@H]2CC[C@H](O)CC2)c2nc(NCCCC(F)(F)F)ncc32)CC1` [Compound 25, trans-5-(4-hydroxycyclohexyl)-8-((4-methylpiperazin-1-yl)methyl)-3-((4,4,4-trifluorobutyl)amino)pyrimido [4,5-c]isoquinolin-6(5H)-one], the EC50 was determined as 1680 nM.

As for `CC(C)Nc1ncc2c3ccc(CN4CCN(C)CC4)cc3c(=O)n([C@H]3CC[C@H](O)CC3)c2n1` [Compound 195, trans-5-(4-Hydroxycyclohexyl)-3-(isopropylamino)-8-((4-methylpiperazin-1-yl)methyl)pyrimido[4,5-c]isoquinolin-6(5H)-one], the EC50 was 72.1 nM.

Take `O=c1c2cc(CN3CCOCC3)ccc2c2cnc(NCC3CC3)nc2n1[C@H]1CC[C@H](O)CC1` [Compound 45, trans-3-((Cyclopropylmethyl)amino)-5-(4-hydroxycyclohexyl)-8-(morpholinomethyl)pyrimido [4,5-c]isoquinolin-6(5H)-one]: the EC50 worked out at 149 nM.

As to `CCCCNc1ncc2c3ccc(N4CCNCC4)cc3c(=O)n(C3CCC(=O)CC3)c2n1` [Compound 84, 3-(Butylamino)-5-(4-oxocyclohexyl)-8-(piperazin-1-yl)pyrimido[4,5-c]isoquinolin-6(5H)-one], the EC50 was determined as 288 nM.

Consider `CCC(F)(F)CNc1ncc2c3ccc(CN4CCN(c5ccncc5)CC4)cc3c(=O)n([C@H]3CC[C@H](O)CC3)c2n1` [Compound 221, trans-3-((2,2-Difluorobutyl)amino)-5-(4-hydroxycyclohexyl)-8-((4-(pyridin-4-yl)piperazin-1-yl)methyl)pyrimido[4,5-c]isoquinolin-6(5H)-one], for which the EC50 is 86.1 nM.

Consider `CN1CCN(Cc2ccc3c(c2)c(=O)n([C@H]2CC[C@H](C(N)=O)CC2)c2nc(NCC4CC4)ncc32)CC1` [Compound 134, trans-4-(3-((Cyclopropylmethyl)amino)-8-((4-methylpiperazin-1-yl)methyl)-6-oxopyrimido[4,5-c]isoquinolin-5(6H)-yl)cyclohexane-1-carboxamide], for which the EC50 stood at 347 nM.

For `CN1CCN(Cc2ccc3c(c2)c(=O)n([C@H]2CC[C@H](NC(=O)CC#N)CC2)c2nc(NCC4CC4)ncc32)CC1` [Compound 190, trans-2-Cyano-N-(4-(3-((cyclopropylmethyl)amino)-8-((4-methylpiperazin-1-yl)methyl)-6-oxopyrimido[4,5-c]isoquinolin-5(6H)-yl)cyclohexyl)acetamide], the EC50 worked out at 73 nM.

Regarding `CCCCNc1ncc2c3ccc(N4CC5(COC5)C4)cc3c(=O)n([C@H]3CC[C@H](O)CC3)c2n1` [Compound 68, trans-3-(Butylamino)-5-(4-hydroxycyclohexyl)-8-(2-oxa-6-azaspiro[3.3]heptan-6-yl)pyrimido[4,5-c]isoquinolin-6(5H)-one], the EC50 was found to be 78.4 nM.

Take `O=c1c2cc(CN3CCOCC3)ccc2c2cnc(NCCC3CC3)nc2n1[C@H]1CC[C@H](O)CC1` [Compound 27, trans-3-((2-Cyclopropylethyl)amino)-5-(4-hydroxycyclohexyl)-8-(morpholinomethyl)pyrimido [4,5-c]isoquinolin-6(5H)-one]: the EC50 amounted to 45.9 nM.

`CC(C)(C)N1CCN(Cc2ccc3c(c2)c(=O)n([C@H]2CC[C@H](O)CC2)c2nc(NCC4CC4)ncc32)CC1` [Compound 182]: the EC50 came out at 7.6 nM.

Consider `CCCCNc1ncc2c3ccc(CN4CCN(C)CC4)cc3c(=O)n([C@H]3CC[C@H](NC(C)=O)C3)c2n1` [Compound 233, N-((1S,3S)-3-(3-(butylamino)-8-((4-methylpiperazin-1-yl)methyl)-6-oxopyrimido[4,5-c]isoquinolin-5(6H)-yl)cyclopentyl)acetamide], for which the EC50 stood at 512 nM.

For `C[C@]1(O)CC[C@H](n2c(=O)c3ccccc3c3cnc(NCCC4CC4)nc32)CC1` [Compound 122, trans-3-((2-Cyclopropylethyl)amino)-5-(4-hydroxy-4-methylcyclohexyl)pyrimido [4,5-c]isoquinolin-6(5H)-one], the EC50 amounted to 165 nM.

As to `CN1CCN(c2ccc3c(c2)c(=O)n([C@H]2CC[C@H](O)CC2)c2nc(NCC4CCC4)ncc32)CC1` [Compound 92, trans-3-((Cyclobutylmethyl)amino)-5-(4-hydroxycyclohexyl)-8-(4-methylpiperazin-1-yl)pyrimido[4,5-c]isoquinolin-6(5H)-one], the EC50 worked out at 38.8 nM.

In the case of `CCCCNc1ncc2c3ccc(CN4CCN(C)CC4)cc3c(=O)n([C@H]3CC[C@@](C)(O)CC3)c2n1` [Compound 17, cis-3-(Butylamino)-5-(4-hydroxy-4-methylcyclohexyl)-8-((4-methylpiperazin-1-yl)methyl)pyrimido[4,5-c]isoquinolin-6(5H)-one], the EC50 is 68 nM.

For `CN1CCC(n2c(=O)c3cc(CN4CCN(C)CC4)ccc3c3cnc(NCC4CC4)nc32)CC1` [Compound 136], the EC50 amounted to 320 nM.

The record behind these values is patent US11110082B2, “Tyrosine kinase inhibitors” (Rigel Pharmaceuticals, Inc., priority 2016, dated 2021).
